The values that follow come from ChEMBL document CHEMBL1134867, “Synthesis and initial structure-activity relationships of a novel series of imidazolo[1,2-a]pyrimid-5-ones as potent GnRH receptor antagonists” (Bioorg Med Chem Lett, 2002).

The target in one data set is T1, Gonadotropin-releasing hormone receptor (Rattus norvegicus, UniProt P30969).
T1 sequence (P30969 whole entry): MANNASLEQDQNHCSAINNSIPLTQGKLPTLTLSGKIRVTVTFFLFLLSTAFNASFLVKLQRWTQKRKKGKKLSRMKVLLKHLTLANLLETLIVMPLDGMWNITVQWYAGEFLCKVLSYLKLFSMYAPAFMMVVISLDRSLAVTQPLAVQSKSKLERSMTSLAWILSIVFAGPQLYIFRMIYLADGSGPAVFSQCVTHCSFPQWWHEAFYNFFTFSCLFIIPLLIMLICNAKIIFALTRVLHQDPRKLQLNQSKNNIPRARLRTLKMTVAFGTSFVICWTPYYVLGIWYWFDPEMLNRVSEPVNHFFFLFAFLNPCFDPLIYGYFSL
Nature of the data set: Ability of compound to inhibit [125I-Tyr5,DLeu6,NMeLeu7,Pro9-NEt]GnRH agonist binding to the rat Gonadotropin-releasing hormone receptor was evaluated.
Conditions: not given
As usually defined, the IC50 is the concentration that gives 50% inhibition. In turn, `Cc1cc(-c2c(O)nc3cc(Cl)c(C(=O)Nc4ncccn4)cc3c2OCC[C@@H]2CCN2)cc(C)c1C` had an IC50 of 4 nM.

Broadly, the Ki is the equilibrium dissociation constant of an inhibitor or competing ligand from its target. Low values mean tighter binding, high ones weaker binding. In turn, `CC[C@H]1OC(=O)[C@H](C)[C@@H](OC(=O)N2C(=O)OC[C@@H]2C)[C@H](C)[C@@H](O[C@@H]2O[C@H](C)C[C@H](N(C)CC3CC3)[C@H]2O)[C@@](C)(OC)C[C@@H](C)C(=O)[C@H](C)[C@H]2N(CCc3ccc(Cl)c(Cl)c3)C(=O)O[C@]12C` gave a Ki of 0.631 nM.

For the next data set, the target named is T2, Gonadotropin-releasing hormone receptor (Homo sapiens, UniProt P30968).
T2 sequence (P30968 whole entry): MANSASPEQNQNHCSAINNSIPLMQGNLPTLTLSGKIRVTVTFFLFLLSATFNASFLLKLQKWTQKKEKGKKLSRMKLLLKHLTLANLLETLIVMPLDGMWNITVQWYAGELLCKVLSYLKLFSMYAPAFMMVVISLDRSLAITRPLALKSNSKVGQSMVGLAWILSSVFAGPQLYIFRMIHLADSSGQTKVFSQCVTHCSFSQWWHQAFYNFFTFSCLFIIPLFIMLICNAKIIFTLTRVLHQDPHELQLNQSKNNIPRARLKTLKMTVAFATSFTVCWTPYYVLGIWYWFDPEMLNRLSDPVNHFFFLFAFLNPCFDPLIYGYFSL
Nature of the data set: Ability of compound to inhibit [125I-Tyr5,DLeu6,NMeLeu7,Pro9-NEt]GnRH agonist binding to the cloned human Gonadotropin-releasing hormone receptor was evaluated.
Conditions: not given
In the case of `Cc1cc(-c2c(O)nc3cc(Cl)c(C(=O)Nc4ncccn4)cc3c2OCC[C@@H]2CCN2)cc(C)c1C`, the IC50 turned out to be 0.44 nM.

Compound `CC[C@H]1OC(=O)[C@H](C)[C@@H](OC(=O)N2C(=O)OC[C@@H]2C)[C@H](C)[C@@H](O[C@@H]2O[C@H](C)C[C@H](N(C)CC3CC3)[C@H]2O)[C@@](C)(OC)C[C@@H](C)C(=O)[C@H](C)[C@H]2N(CCc3ccc(Cl)c(Cl)c3)C(=O)O[C@]12C` had a Ki of 2 nM.

The target in a further data set is T2, Gonadotropin-releasing hormone receptor. The data set is described as follows: Ability to inhibit [125I-Tyr5,DLeu6,NMeLeu7,Pro9-NEt]GnRH agonist binding to the cloned human Gonadotropin-releasing hormone receptor was evaluated.
Conditions: not given
`CCCC(=O)Nc1ccc(-c2nc3n(Cc4ccccc4F)cc(C(=O)OC(CC)CC)c(=O)n3c2CN(C)CCOC)cc1` registered a Ki of 36 nM.

Regarding `CCCC(=O)Nc1ccc(-c2cn3c(=O)c(C(=O)OCC)cn(Cc4ccccc4F)c3n2)cc1`, the Ki was 30000 nM.

`CCCC(=O)Nc1ccc(-c2nc3n(Cc4ccccc4F)cc(C(=O)OC(CC)CC)c(=O)n3c2CN2CCCC2)cc1`: the Ki came to 2200 nM.

On to `CCOC(=O)c1cn(Cc2ccccc2F)c2nc(-c3ccc(OC)cc3)c(CN(C)CCc3ccccn3)n2c1=O`, for which the Ki is 230 nM.

In turn, `CCCC(=O)Nc1ccc(-c2nc3n(Cc4ccccc4F)cc(C(=O)OC(CC)CC)c(=O)n3c2CN(C)CC#N)cc1` registered a Ki of 300 nM.

`CCCC(=O)Nc1ccc(-c2nc3n(Cc4ccccc4F)cc(C(=O)OCC)c(=O)n3c2CN(C)Cc2ccccc2)cc1`: the affinity, expressed as Ki, was 80 nM.

`CCCC(=O)Nc1ccc(-c2cn3c(=O)c(C(=O)OC(CC)CC)cn(Cc4ccccc4F)c3n2)cc1`: the Ki turned out to be 28000 nM.

With `CCCC(=O)Nc1ccc(-c2nc3n(Cc4ccccc4F)cc(C(=O)OC(CC)CC)c(=O)n3c2CN(C)Cc2cccnc2)cc1`, the affinity corresponds to a Ki of 52 nM.

`CCCC(=O)Nc1ccc(-c2nc3n(Cc4ccccc4F)cc(C(=O)OCC)c(=O)n3c2CN(C)CCc2ccccn2)cc1`: the Ki stood at 12 nM.

With `CCCC(=O)Nc1ccc(-c2nc3n(Cc4ccccc4F)cc(C(=O)OC(CC)CC)c(=O)n3c2CN(C)CCc2ccccc2)cc1`, affinity was put at a Ki of 14 nM.

As to `CCCC(=O)Nc1ccc(-c2nc3n(Cc4ccccc4F)cc(C(=O)OC(CC)CC)c(=O)n3c2CN(C)CCc2ccccn2)cc1`, affinity was put at a Ki of 7.5 nM.

Take `CCCC(=O)Nc1ccc(-c2nc3n(Cc4ccccc4F)cc(C(=O)OC(CC)CC)c(=O)n3c2CN2CCc3ccccc3C2)cc1`: the Ki came out at 290 nM.

In turn, `CCCC(=O)Nc1ccc(-c2nc3n(Cc4ccccc4F)cc(C(=O)OC(CC)CC)c(=O)n3c2CN(C)Cc2ccco2)cc1` gave a Ki of 29 nM.

With `CCC(CC)OC(=O)c1cn(Cc2ccccc2F)c2nc(-c3ccc(NC(=O)C(C)C)cc3)c(CN(C)Cc3ccccc3)n2c1=O`, affinity was put at a Ki of 41 nM.

`CCOC(=O)c1cn(Cc2ccccc2F)c2nc(-c3ccc(OC)cc3)c(CN(C)Cc3ccccc3)n2c1=O`: affinity was put at a Ki of 950 nM.

Test system in the next data set: not listed separately
Nature of the data set: Oral bioavailability in rat. The settings on record: in vivo. Format: ADME, organism-based.
For orientation: bioavailability means dose-corrected exposure relative to a reference, in per cent. Read a low bioavailability as little systemic uptake. Compound `CC[C@H]1OC(=O)[C@H](C)[C@@H](OC(=O)N2C(=O)OC[C@@H]2C)[C@H](C)[C@@H](O[C@@H]2O[C@H](C)C[C@H](N(C)CC3CC3)[C@H]2O)[C@@](C)(OC)C[C@@H](C)C(=O)[C@H](C)[C@H]2N(CCc3ccc(Cl)c(Cl)c3)C(=O)O[C@]12C` had a bioavailability of 15.2%.
